According to patent publication US9328093B2, “Selective inhibitors of ubiquitin specific protease 7, the pharmaceutical compositions thereof and their therapeutic applications” (HYBRIGENICS SA, priority 2010, dated 2016):

What follows are compounds tested against T1, USP7 (Homo sapiens, UniProt Q93009) (assay: USP7 activity assay (Ub-AMC substrate)). Conditions: Ub-AMC 300 nM, USP7 100 pM, 30 min pre-incubation.
T1 construct: Full-length wild-type human USP7 and its catalytic mutant (cysteine 223 replaced by alanine, C223A) were produced as N-terminally His-tagged fusions; His (N); made in house; host or cells: Spodoptera frugiperda Sf9 (or High Five) insect cells, baculovirus pFastBac-HT-B
Type: biochemical
Source text: The cDNA encoding USP7 was obtained by PCR amplification from placenta mRNA. USP7 cDNA was subcloned by PCR into a baculovirus expression vector (pFastBac-HT; Invitrogen). Full-length wild-type human USP7 and its catalytic mutant (cysteine 223 replaced by alanine, C223A) were produced as N-terminally His-tagged fusions in Spodoptera frugiperda cells (Sf9, Invitrogen), using the Bac-to-Bac Baculovirus system from Invitrogen according to the manufacturer's instructions. pFastBac-HT-B-USP7 was used to transform DH10bac cells (Invitrogen), and blue/white selection was carried out on X-gal/IPTG agar plates. Bacmid DNA was prepared by an alkaline lysis procedure. The integrity of the bacmid minipreps and their orientation were checked by PCR, using generic and specific primers. Sf9 insect cells were cultured in InsectXpress medium (Cambrex) at 27° C. and transfected with the corresponding bacmid, using GeneShuttle 40 (Q-BIOgen). Viruses were recovered in the supernatant 72 h after transfection. Viruses were amplified by infecting insect cells (Sf9 or High Five cells; invitrogen) in 50 ml InsectXpress medium in a 150 cm^2 cell culture flask with 500 μl of the supernatant from transfected Sf9 cells. Following the second round of amplification, infected cells were recovered by rapid SDS lysis, boiled for 5 min at 100° C., sonicated briefly and centrifuged for 20 min at 14,000 g. Expression levels in infected Sf9 cells were compared with those in uninfected cells. Fusion proteins were then allowed to bind to TALON beads (BD Biosciences, TALON metal affinity resin) for 30 min at 4° C. with gentle rocking. Beads were extensively washed (50 mM sodium phosphate buffer pH 7.0, 500 mM NaCl, 10 mM Imidazole, 0.5% Triton X-100 and 10% glycerol) and bound proteins were eluted in wash buffer supplemented with 250 mM Imidazole (Sigma). Eluted fractions were resolved on 4-12% NuPAGE gels (Novex, Invitrogen). Fractions containing high concentrations of purified proteins (purity >95%) were dialyzed (20 mM Tris HCl pH 7.6, 200 mM NaCl, 1 mM DTT, 1 mM EDTA and 10% glycerol) were aliquoted and snap frozen in liquid nitrogen before storage at −80° C.
USP7 was diluted in USP buffer (50 mM Tris HCl; 0.5 mM EDTA; 5 mM DTT; 0.01% Triton X-100; Bovine Serum Albumin 0.05 mg·ml^−1 pH7.6). Compounds stocks (10 mM) were stored at −20° C. in DMSO. Compounds were tested at different concentrations: from 200 μM to 91 nM.
Reactions were performed as duplicates in Black 384 well plates (small volumes microplates; Greiner; 10 μl final reaction volume). The substrate concentration for USP7 was 300 nM Ub-AMC (Chem. Biol., 2003, 10, p. 837-846) (Boston Biochem). The concentrations of the enzyme (USP7) in specificity assays was 100 pM. The concentrations were determined in order to perform specificity assays under initial velocities at fixed substrate concentration. Compounds were pre-incubated with enzymes for 30 minutes at 25° C. Reactions were initiated by addition of substrate to the plates containing the enzymes (+/− compounds) diluted in assay buffer. Reactions were incubated for 60 minutes at 37° C. Reactions were stopped by adding acetic acid (100 mM final). Readings were performed on a Pherastar Fluorescent Reader (BMG). λ
Emission 380 nm; λ Excitation=460 nm. Data (mean values +/− standard deviation) were analyzed as % of control (no compound) and plotted as percentage versus the Log of the compound concentration using GraphPad (Prism). Data were fitted to a sigmoidal model (variable slope).

Compound	IC50
CN1CCCC1CCNC(=O)c1ccc2c(Cl)c3c(nc2c1)CCCC3 (stereo not drawn) [Example 17, 9-chloro-N-(2-(1-methylpyrrolidin-2-yl)ethyl)-5,6,7,8-tetrahydroacridino-3-carboxamide]	13.7 µM
O=C(NCc1cccc(CN2CCCC2)c1)c1ccc2c(Cl)c3c(nc2c1)CCCC3 [Example 18, 9-chloro-N-(3-(pyrrolidin-1-ylmethyl)benzyl)-5,6,7,8-tetrahydroacridine-3-carboxamide]	18.3 µM
O=C(Nc1cccc(CN2CCCC2)c1)c1ccc2c(Cl)c3c(nc2c1)CCCC3 [Example 19, 9-chloro-N-(3-(pyrrolidin-1-ylmethyl)phenyl)-5.6,7,8-tetrahydroacridine-3-carboxamide]	8.2 µM
CC1CCCCN1CCCNC(=O)c1ccc2c(Cl)c3c(nc2c1)CCCC3 (stereo not drawn) [Example 20, 9-chloro-N-(3-(2-methylpiperidin-1-yl)propyl)-516,7,8-tetrahydroacridine-3-carboxamide]	45.5 µM
O=C(NCc1ccc(CN2CCCC2)cc1)c1ccc2c(Cl)c3c(nc2c1)CCCC3 [Example 21, 9-chloro-N-(4-(pyrrolidin-1-ylmethyl)benzyl)-5,6,7,8-tetrahydroacridine-3-carboxamide]	16.3 µM
COc1ccc(CN2CCC(CNC(=O)c3ccc4c(Cl)c5c(nc4c3)CCCC5)CC2)cc1 [Example 22, 9-chloro-N-((1-(4-methoxybenzyl)piperidin-4-yl)methyl)-5,6,7,8-tetrahydroacridine-3-carboxamide]	27.4 µM
CN(C)c1ccc(CN2CCC(CNC(=O)c3ccc4c(Cl)c5c(nc4c3)CCCC5)CC2)cc1 [Example 23]	33.1 µM
O=C(NCC1CCNCC1)c1ccc2c(Cl)c3c(nc2c1)CCCC3 [Example 24, 9-chloro-N-((piperidin-4-yl)methyl)-5,6,7,8-tetrahydroacridine-3-carboxamide]	45.2 µM
O=C(NCC(CN1CCCC1)C(O)c1ccccc1)c1ccc2c(Cl)c3c(nc2c1)CCCC3 (stereo not drawn) [Example 25, 9-chloro-N-(3-hydroxy-3-phenyl-2-pyrrolidin-1-ylmethylpropyl)-5,6,7,8-tetrahydroacridine-3-carboxamide]	59.5 µM
